Experimental data as given in US10233189B2 (priority 2015, dated 2019).

Experiment: Evaluation of stability in hepatic microsome
Format: in vitro ADME
Conditions: mouse hepatic microsome 0.25 mg/mL, 1 μM compound, 37° C., 30 minutes, NADPH-generating system

Cc1ccc(-c2nn(C(C)(C)C)c3ncnc(N)c23)cc1 [Compound 4 of Comparative Examples, 1-(tert-butyl)-3-(p-tolyl)pyrazolo[3,4-d]pyrimidin-4-amine]
percentage of the remaining tested compounds (remaining %): 0%
